Where a name gives a salt, the structure may show the parent alone. Active and inactive are the calls of the source. The calls are words filed in the database; no cut-off is given here.
Assays:
HCC1806 [1] = assay: Antiproliferative activity against human HCC1806 cells assessed as inhibition of cell growth by SRB assay; format: functional, cell-based
HCC1806 [2] = assay: Antiproliferative activity against human HCC1806 cells assessed as inhibition of cell growth at 20 uM by SRB assay relative to control; format: functional
MDA-MB-231 [3] = assay: Antiproliferative activity against human MDA-MB-231 cells assessed as inhibition of cell growth by SRB assay; format: functional, cell-based
MDA-MB-231 [4] = assay: Antiproliferative activity against human MDA-MB-231 cells assessed as inhibition of cell growth at 20 uM by SRB assay relative to control; format: functional
[5] = molecular target: RAC-alpha serine/threonine-protein kinase (Homo sapiens) (UniProt P31749); assay: Inhibition of AKT phosphorylation in human HCC1806 cells at 10 uM incubated for 24 hrs by Western blot analysis; format: cell-based
HCC1806 [6] = assay: Antitumor activity against human HCC1806 cells assessed as reduction in p53 protein level at 10 uM incubated for 24 hrs by Western blot analysis; format: functional, cell-based
HCC1806 [7] = assay: Antitumor activity against human HCC1806 cells assessed as induction of phosphorylated p38 protein accumulation at 10 uM incubated for 24 hrs by Western blot analysis; format: functional, cell-based
HCC1806 [8] = assay: Antitumor activity against human HCC1806 cells assessed as induction of p21 protein accumulation at 10 uM incubated for 24 hrs by Western blot analysis; format: functional, cell-based
4T1 [9] = assay: Antitumor activity against mouse 4T1 cells implanted in BALB/C mouse assessed as tumor growth inhibition at 0.69 mg/kg administered once every two days for 15 days in the presence of adriamycin relative to control; format: functional; conditions: 4T1, 360 h, time 15 day, read-out: TGI
HCC1806 [10] = assay: Inhibition of ERK phosphorylation in human HCC1806 cells at 10 uM incubated for 24 hrs by Western blot analysis; format: cell-based
HCC1806 [11] = assay: Induction of cell cycle arrest in human HCC1806 cells assessed as decrease in G2/M phase cells at 10 uM incubated for 24 hrs by flow cytometric analysis; format: functional, cell-based
HCC1806 [12] = assay: Induction of cell cycle arrest in human HCC1806 cells assessed as accumulation at S phase at 10 uM incubated for 24 hrs by flow cytometric analysis; format: functional, cell-based
4T1 [13] = assay: Antitumor activity against mouse 4T1 cells implanted in BALB/C mouse assessed as tumor growth inhibition at 4 mg/kg administered once every two days for 15 days in the presence of toosendanin relative to control; format: functional; conditions: 4T1, 360 h, time 15 day, read-out: TGI

RAC-alpha serine/threonine-protein kinase (Homo sapiens), sequence (P31749 whole entry): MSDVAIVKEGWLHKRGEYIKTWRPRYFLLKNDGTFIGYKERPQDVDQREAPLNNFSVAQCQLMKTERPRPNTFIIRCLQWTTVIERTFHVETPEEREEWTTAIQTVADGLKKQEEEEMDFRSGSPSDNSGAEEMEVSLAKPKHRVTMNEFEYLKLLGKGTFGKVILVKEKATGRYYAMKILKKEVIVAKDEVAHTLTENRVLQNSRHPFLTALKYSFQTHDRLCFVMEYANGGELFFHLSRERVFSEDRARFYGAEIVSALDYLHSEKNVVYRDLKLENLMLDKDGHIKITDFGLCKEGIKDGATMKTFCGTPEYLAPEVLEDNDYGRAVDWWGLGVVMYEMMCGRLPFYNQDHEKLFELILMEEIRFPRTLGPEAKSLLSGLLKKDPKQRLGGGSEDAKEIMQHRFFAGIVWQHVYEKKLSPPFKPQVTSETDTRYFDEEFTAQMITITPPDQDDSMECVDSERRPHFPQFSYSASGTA

Structure (SMILES) | inhibition at 20 µM (HCC1806 [2]) [%] | inhibition at 20 µM (MDA-MB-231 [4]) [%] | also measured
CC(=O)O[C@@H]1C[C@H](O)[C@@]23COC[C@]1(C)[C@@H]2C[C@@H](O)[C@@]1(C)[C@@H]2[C@@H](O)C[C@@H](c4ccoc4)[C@]2(C)[C@@H](OC(C)=O)C(=O)[C@@H]13 | 87.3 | 61.5 | IC50 (HCC1806 [1]): 5.76 µM; IC50 (MDA-MB-231 [3]): 11.8 µM
CC(=O)O[C@@H]1C[C@H](O)[C@@]23COC[C@]1(C)[C@@H]2C[C@@H](OC(=O)/C=C/c1ccc(OC(F)(F)F)cc1)[C@@]1(C)[C@@H]2C(=O)C[C@@H](c4ccoc4)[C@]2(C)[C@@H](OC(C)=O)C(=O)[C@@H]13 | 18.1 | 9.9 | 
CC(=O)O[C@@H]1C[C@H](O)[C@@]23COC[C@]1(C)[C@@H]2C[C@@H](OC(=O)c1ccccc1F)[C@@]1(C)[C@@H]2C(=O)C[C@@H](c4ccoc4)[C@]2(C)[C@@H](OC(C)=O)C(=O)[C@@H]13 | -1.53 | 8.23 | 
CC(=O)O[C@@H]1C[C@H](O)[C@@]23COC[C@]1(C)[C@@H]2C[C@@H](O)[C@@]1(C)[C@@H]2C(=O)C[C@@H](c4coc(Br)c4)[C@]2(C)[C@@H](OC(C)=O)C(=O)[C@@H]13 | 2.97 | -5.16 | 
CC(=O)O[C@@H]1C[C@H](O)[C@@]23COC[C@]1(C)[C@@H]2C[C@@H](OC(=O)c1ccc([N+](=O)[O-])cc1)[C@@]1(C)[C@@H]2C(=O)C[C@@H](c4ccoc4)[C@]2(C)[C@@H](OC(C)=O)C(=O)[C@@H]13 | -0.88 | 3.95 | 
CC(=O)O[C@@H]1C[C@H](O)[C@@]23CO[C@@H](O)[C@]1(C)[C@@H]2C[C@@H](O)[C@]1(C)[C@@H]3C(=O)[C@H](OC(C)=O)[C@@]2(C)[C@H](c3ccoc3)C[C@H]3O[C@]321 [TOOSENDANIN] | 101 | 79.2 | inhibition [5]: Active; Activity (HCC1806 [6]): Active; Activity (HCC1806 [7]): Active; Activity (HCC1806 [8]): Active; inhibition in vivo at 0.69 mg/kg (4T1 [9]): 90%; inhibition (HCC1806 [10]): Active; Activity (HCC1806 [11]): Active; IC50 (HCC1806 [1]): 0.019 µM; IC50 (MDA-MB-231 [3]): 0.115 µM; Activity (HCC1806 [12]): Active
CC(=O)O[C@@H]1C[C@H](O)[C@@]23COC[C@]1(C)[C@@H]2C[C@@H](OC(=O)c1ccccc1)[C@@]1(C)[C@@H]2C(=O)C[C@@H](c4ccoc4)[C@]2(C)[C@@H](OC(C)=O)C(=O)[C@@H]13 | 14.9 | 20.7 | 
CC(=O)O[C@@H]1C[C@H](O)[C@@]23COC[C@]1(C)[C@@H]2CC(=O)[C@@]1(C)[C@@H]2C(=O)C[C@@H](c4ccoc4)[C@]2(C)[C@@H](OC(C)=O)C(=O)[C@@H]13 | 14.7 | 11.7 | 
CC(=O)O[C@@H]1C[C@H](O)[C@@]23COC(=O)[C@]1(C)[C@@H]2C[C@@H](O)[C@]1(C)[C@@H]3C(=O)[C@H](OC(C)=O)[C@@]2(C)[C@H](c3ccoc3)C[C@H]3O[C@]321 | 93.8 | 68.7 | inhibition [5]: Active; Activity (HCC1806 [6]): Active; Activity (HCC1806 [7]): Active; Activity (HCC1806 [8]): Active; inhibition (HCC1806 [10]): Active; Activity (HCC1806 [11]): Active; IC50 (HCC1806 [1]): 0.98 µM; IC50 (MDA-MB-231 [3]): 6.61 µM; Activity (HCC1806 [12]): Active
COc1ccc(C(=O)O[C@@H]2C[C@H]3[C@@]4(C)COC[C@@]3([C@@H](O)C[C@H]4OC(C)=O)[C@H]3C(=O)[C@H](OC(C)=O)[C@]4(C)[C@@H](C(=O)C[C@H]4c4ccoc4)[C@]23C)cc1 | 0.37 | 14.3 | 
CC(=O)O[C@@H]1C[C@H](O)[C@@]23COC[C@]1(C)[C@@H]2C[C@@H](O)[C@@]1(C)[C@@H]2/C(=N/O)C[C@@H](c4ccoc4)[C@]2(C)[C@@H](OC(C)=O)C(=O)[C@@H]13 | 10.9 | 4.72 | 
COC1OC[C@]23[C@@H](O)C[C@@H](OC(C)=O)[C@@]1(C)[C@@H]2C[C@@H](O)[C@@]1(C)[C@@H]2C(=O)C[C@@H](c4ccoc4)[C@]2(C)[C@@H](OC(C)=O)C(=O)[C@@H]13 (stereo partly drawn) | -15.8 | 4.29 | 
CC(=O)O[C@H]1C[C@@H](OC(C)=O)[C@]2(C)C(O)OC[C@]13[C@H]1C(=O)[C@H](OC(C)=O)[C@@]4(C)[C@H](c5ccoc5)C[C@H]5O[C@]54[C@]1(C)[C@H](OC(C)=O)C[C@@H]23 (stereo partly drawn) | -27.9 | 6.36 | 
COc1cccc2c1C(=O)c1c(O)c3c(c(O)c1C2=O)C[C@@](O)(C(=O)CO)C[C@@H]3O[C@H]1C[C@H](N)[C@H](O)[C@H](C)O1 [DOXORUBICIN HYDROCHLORIDE] |  |  | inhibition in vivo at 4 mg/kg (4T1 [13]): 90%
CC(=O)O[C@@H]1C[C@H](O)[C@@]23COC(=O)[C@]1(C)[C@@H]2C[C@@H](O)[C@@]1(C)[C@@H]2C(=O)C[C@@H](c4ccoc4)[C@]2(C)[C@@H](OC(C)=O)C(=O)[C@@H]13 | -24.7 | 6.87 | 
CC(=O)O[C@H]1C[C@@H](OC(C)=O)[C@]2(C)C(=O)OC[C@]13[C@H]1C(=O)[C@H](OC(C)=O)[C@@]4(C)[C@H](c5ccoc5)C[C@H]5O[C@]54[C@]1(C)[C@H](OC(C)=O)C[C@@H]23 | -9.68 | 4.86 | 
CC(=O)O[C@@H]1C[C@H](O)[C@@]23COC[C@]1(C)[C@@H]2C[C@@H](O)[C@@]1(C)[C@@H]2C(=O)C[C@@H](c4ccoc4)[C@]2(C)[C@@H](OC(C)=O)C(=O)[C@@H]13 | -42.3 | 5.4 | 
CC(=O)O[C@@H]1C[C@H](O)[C@@]23COC(=O)[C@]1(C)[C@@H]2C[C@@H](O)[C@]1(C)[C@@H]3C(=O)C(O)[C@@]2(C)[C@H](c3ccoc3)C[C@H]3O[C@@]312 (mixture of isomers) | 9.96 | 9.58 | 
CC(=O)OC1OC[C@]23[C@@H](OC(C)=O)C[C@@H](OC(C)=O)[C@@]1(C)[C@@H]2C[C@@H](OC(C)=O)[C@]1(C)[C@@H]3C(=O)[C@H](OC(C)=O)[C@@]2(C)[C@H](c3ccoc3)C[C@H]3O[C@@]312 (stereo partly drawn) | -31 | 128 | 

Reference: ChEMBL document CHEMBL5252572, “Design, synthesis, and anti-triple negative breast cancer activity of novel Toosendanin derivatives” (Bioorg Med Chem Lett, 2023)
